Measured values as given in ChEMBL document CHEMBL3621163, “Phenothiazine-based CaaX competitive inhibitors of human farnesyltransferase bearing a cysteine, methionine, serine or valine moiety as a new family of antitumoral compounds” (Bioorg Med Chem Lett, 2015).

Experiments:
Format in all cases: protein-complex assay
[1] = target: T1, Protein farnesyltransferase (Homo sapiens, UniProt P49354+P49356); assay: Inhibition of recombinant human FTase using FPP/dansyl-GCVLS as substrate at 100 uM measured for 15 mins by fluorimetric analysis relative to control
[2] = target: T1, Protein farnesyltransferase; assay: Inhibition of recombinant human FTase using FPP/dansyl-GCVLS as substrate measured for 15 mins by fluorimetric analysis
[3] = target: T1, Protein farnesyltransferase; assay: Inhibition of human FTase

inhibition [1] | IC50 [2] | IC50 [3] | Compound
92% | 4.7 µM |  | O=C(CCN1c2ccccc2Sc2ccccc21)N[C@@H](CS)C(=O)O
5% |  |  | COC(=O)[C@H](CCSC)NC(=O)CCN1c2ccccc2Sc2ccccc21
73% | 40.2 µM |  | CSCC[C@H](NC(=O)CCn1c2ccccc2c2ccccc21)C(=O)O
52% |  |  | COC(=O)[C@@H](NC(=O)CCN1c2ccccc2Sc2ccccc21)C(C)C
10% |  |  | CCOC(=O)[C@H](CS)NC(=O)CCN1c2ccccc2Sc2ccccc21
76% | 44.7 µM |  | CC(C)[C@H](NC(=O)CCN1c2ccccc2Sc2ccccc21)C(=O)O
96% | 18.9 µM |  | CSCC[C@H](NC(=O)CCN1c2ccccc2Sc2ccc(Cl)cc21)C(=O)O
63% |  |  | COC(=O)[C@H](CO)NC(=O)CCN1c2ccccc2Sc2ccccc21
0% |  |  | COC(=O)[C@H](CCSC)NC(=O)CCN1c2ccccc2Sc2ccc(Cl)cc21
92% | 11.7 µM |  | CSCC[C@H](NC(=O)CCN1c2ccccc2Sc2ccccc21)C(=O)O
94% | 12 µM |  | O=C(CCN1c2ccccc2Sc2ccccc21)N[C@@H](CO)C(=O)O

Further lines, the compound ahead of its results:

Compound | inhibition [1] | IC50 [2] | IC50 [3]
CCOC(=O)[C@H](CSSC[C@H](NC(=O)CCN1c2ccccc2Sc2ccccc21)C(=O)OCC)NC(=O)CCN1c2ccccc2Sc2ccccc21 | 0% |  | 
COC(=O)[C@H](CO)NC(=O)CCn1c2ccccc2c2ccccc21 | 23% |  | 
COC(=O)[C@H](CCSC)NC(=O)CCn1c2ccccc2c2ccccc21 | 51% |  | 
O=C(CCn1c2ccccc2c2ccccc21)N[C@@H](CO)C(=O)O | 33% |  | 
CCOC(=O)[C@H](CS)NC(=O)CCn1c2ccccc2c2ccccc21 | 15% |  | 
O=C(CCn1c2ccccc2c2ccccc21)N[C@@H](CS)C(=O)O | 67% | 65.4 µM | 
CC(C)[C@H](NC(=O)CCn1c2ccccc2c2ccccc21)C(=O)O | 22% |  | 
O=C(CCn1c2ccccc2c2ccccc21)OCCS |  |  | 35 µM
COC(=O)[C@@H](NC(=O)CCn1c2ccccc2c2ccccc21)C(C)C | 12% |  | 
